System: HIV-1 IIIB
Assay: HOS HIV-1 infectivity assay
Format: cell-based
Details: Human immunodeficiency virus 1, IIIB; as determined by the infectivity assay; strain not stated in Table 2; read-out: Activity Level
Description: Compounds were profiled against two HIV-1 viruses, the M-tropic (CCR5 utilizing) Ba-L strain and the T-tropic (CXCR4 utilizing) IIIB strain. Both viruses were propagated in human peripheral blood lymphocytes. Compounds were tested for there ability to block infection of the HOS cell line (expressing hCXCR4/hCCR5/hCD4/pHIV-LTR-luciferase) by either HIV-1 Ba-L or HIV-1 IIIB. Compound cytotoxicity was also examined in the absence of virus addition.
HOS cells (expressing hCXCR4/hCCR5/hCD4/pHIV-LTR-luciferase) were harvested and diluted in Dulbeccos modified Eagles media supplemented with 2% FCS and non-essential amino acid to a concentration of 60,000 cells/ml. The cells were plated into 96-well plates (100 ul per well) and the plates were placed in a tissue culture incubator (37° C.; 5% CO2/95% air) for a period of 24 h.
Subsequently, 50 ul of the desired drug solution (4 times the final concentration) was added to each well and the plates were returned to the tissue culture incubator (37° C.; 5% CO2/95% air) for 1 h. Following this incubation 50 ul of diluted virus was added to each well (approximately 2 million RLU per well of virus). The plates were returned to the tissue culture incubator (37° C.; 5% CO2/95% air) and were incubated for a further 96 h.
Following this incubation the endpoint for the virally infected cultures was quantified following addition of Steady-Glo Luciferase assay system reagent (Promega, Madison, Wis.). Cell viability or non-infected cultures was measured using a CellTiter-Glo luminescent cell viability assay system (Promega, Madison, Wis.). All luminescent readouts are performed on a Topcount luminescence detector (Packard, Meridien, Conn.).

Structure (SMILES) | IC50 [nM]
CN(C)CCCCCCn1c(CN(C)C2CCCc3cccnc32)nc2ccccc21 (centres unmarked) [Example 49, N-({1-[6-(Dimethylamino)hexyl]-1H-benzimidazol-2-yl}methyl)-N-methyl-5,6,7,8-tetrahydro-8-quinolinamine] | 100 to 500
CN(Cc1nc2ccccc2n1C[C@H]1CCCN(Cc2ccccc2)C1)[C@H]1CCCc2cccnc21 [Example 43, (8S)—N-Methyl-N-[(1-{[(3S)-1-(phenylmethyl)-3-piperidinyl]methyl}-1H-benzimidazol-2-yl)methyl]-5,6,7,8-tetrahydro-8-quinolinamine] | < 100
CN(Cc1nc2ccccc2n1C[C@H]1CCCN(Cc2ccncc2)C1)[C@H]1CCCc2cccnc21 [Example 42, (8S)—N-Methyl-N-[(1-{[(3S)-1-(4-pyridinylmethyl)-3-piperidinyl]methyl}-1H-benzimidazol-2-yl)methyl]-5,6,7,8-tetrahydro-8-quinolinamine] | < 100
CC(C)N1CCC[C@H](Cn2c(CN(CCO)[C@H]3CCCc4cccnc43)nc3ccccc32)C1 [Example 99, 2-{[(1-{[(3S)-1-(1-Methylethyl)-3-piperidinyl]methyl}-1H-benzimidazol-2-yl)methyl][(8S)-5,6,7,8-tetrahydro-8-quinolinyl]amino}ethanol] | < 100
CC(C)N1CCC[C@H](Cn2c(CN(C)[C@H]3CCCc4cccnc43)nc3ccccc32)C1 [Example 85, (8S)—N-Methyl-N-[(1-{[(3S)-1-(1-methylethyl)-3-piperidinyl]methyl}-1H-benzimidazol-2-yl)methyl]-5,6,7,8-tetrahydro-8-quinolinamine] | < 100
CN(Cc1nc2ccccc2n1C[C@H]1CCCN(CCO)C1)[C@H]1CCCc2cccnc21 [Example 46, 2-((3S)-3-{[2-({Methyl[(8S)-5,6,7,8-tetrahydro-8-quinolinyl]amino}methyl)-1H-benzimidazol-1-yl]methyl}-1-piperidinyl)ethanol] | < 100
CN(Cc1nc2ccccc2n1C[C@H]1CCCN(C(=N)N)C1)[C@@H]1CCCc2cccnc21 [Example 88, (3R)-3-{[2-({Methyl[(8R)-5,6,7,8-tetrahydro-8-quinolinyl]amino}methyl)-1H-benzimidazol-1-yl]methyl}-1-piperidinecarboximidamide] | 100 to 500
CN(Cc1nc2ccccc2n1CCc1cn(C)cn1)C1CCCc2cccnc21 (centres unmarked) [Example 72, N-Methyl-N-({1-[2-(1-methyl-1H-imidazol-4-yl)ethyl]-1H-benzimidazol-2-yl}methyl)-5,6,7,8-tetrahydro-8-quinolinamine] | 500 to 10000
CC(C)N1CCC[C@@H](Cn2c(CN(C)[C@@H]3CCCc4cccnc43)nc3ccccc32)C1 [Example 79, (8R)—N-Methyl-N-[(1-{[(3R)-1-(1-methylethyl)-3-piperidinyl]methyl}-1H-benzimidazol-2-yl)methyl]-5,6,7,8-tetrahydro-8-quinolinamine] | < 100
CN1CCC[C@H]1CN1CCC[C@H](Cn2c(CN(C)[C@H]3CCCc4cccnc43)nc3ccccc32)C1 [Example 106, (8S)—N-Methyl-N-({1-[((3S)-1-{[(2S)-1-methyl-2-pyrrolidinyl]methyl}-3-Piperidinyl)methyl]-1H-benzimidazol-2-yl}methyl)-5,6,7,8-tetrahydro-8-quinolinamine] | < 100
CN(C)Cc1ccccc1Cn1c(CN(C)C2CCCc3cccnc32)nc2ccccc21 (centres unmarked) [Example 50, N-{[1-({2-[(Dimethylamino)methyl]phenyl}methyl)-1H-benzimidazol-2-yl]methyl}-N-methyl-5,6,7,8-tetrahydro-8-quinolinamine] | 100 to 500
NCCCCn1c(CN(CCc2ccccc2)C2CCCc3cccnc32)nc2ccccc21 (centres unmarked) [Example 53, N-{[1-(4-Aminobutyl)-1H-benzimidazol-2-yl}methyl]-N-(2-phenylethyl)-5,6,7,8-tetrahydro-8-quinolinamine] | 500 to 10000
CN1CCC[C@@H](Cn2c(CN(C)[C@@H]3CCCc4cccnc43)nc3ccccc32)C1 [Example 77, (8R)—N-Methyl-N-[(1-{[(3R)-1-methyl-3-piperidinyl]methyl}-1H-benzimidazol-2-yl)methyl]-5,6,7,8-tetrahydro-8-quinolinamine] | 100 to 500

Now from value to compound:

IC50 [nM] | Structure (SMILES)
100 to 500 | CN(Cc1nc2ccccc2n1CCCNS(=O)(=O)c1ccccc1)C1CCCc2cccnc21 (centres unmarked) [Example 62, N-[3-(2-{[Methyl(5,6,7,8-tetrahydro-8-quinolinyl)amino]methyl}-1H-benzimidazol-1-yl)propyl]benzenesulfonamide]
< 100 | CCCN(Cc1nc2ccccc2n1C[C@H]1CCCN(C(C)C)C1)[C@H]1CCCc2cccnc21 [Example 97, (8S)—N-[(1-{[(3S)-1-(1-methylethyl)-3-piperidinyl]methyl}-1H-benzimidazol-2-yl)methyl]-N-propyl-5,6,7,8-tetrahydro-8-quinolinamine]
100 to 500 | CN(Cc1nc2ccccc2n1C/C=C/CN)C1CCCc2cccnc21 (centres unmarked) [Example 58, N-({1-[(2E)-4-Amino-2-buten-1-yl]-1H-benzimidazol-2-yl}methyl)-N-methyl-5,6,7,8-tetrahydro-8-quinolinamine]
< 100 | CC(C)N1CCC[C@H](Cn2c(CN(CCCO)[C@H]3CCCc4cccnc43)nc3ccccc32)C1 [Example 100, 3-{[(1-{[(3S)-1-(1-Methylethyl)-3-piperidinyl]methyl}-1H-benzimidazol-2-yl)methyl][(8S)-5,6,7,8-tetrahydro-8-quinolinyl]amino}-1-propanol]
< 100 | CN(Cc1nc2ccccc2n1C[C@H]1CCCN(/C(N)=N/C#N)C1)[C@H]1CCCc2cccnc21 [Example 91, (3R)—N-Cyano-3-{[2-({methyl[(8S)-5,6,7,8-tetrahydro-8-quinolinyl]amino}methyl)-1H-benzimidazol-1-yl]methyl}-1-piperidinecarboximidamide]
100 to 500 | CN(Cc1nc2ccccc2n1C[C@@H]1CCCN(C(=N)N)C1)[C@@H]1CCCc2cccnc21 [Example 86, (3S)-3-{[2-({Methyl[(8R)-5,6,7,8-tetrahydro-8-quinolinyl]amino}methyl)-1H-benzimidazol-1-yl]methyl}-1-piperidinecarboximidamide]
< 100 | CN(Cc1nc2ccccc2n1C[C@H]1CCCN(Cc2cccnc2)C1)[C@H]1CCCc2cccnc21 [Example 41, (8S)—N-Methyl-N-[(1-{[(3S)-1-(3-pyridinylmethyl)-3-piperidinyl]methyl}-1H-benzimidazol-2-yl)methyl]-5,6,7,8-tetrahydro-8-quinolinamine]
< 100 | CN(Cc1nc2ccccc2n1C[C@H]1CCCN(Cc2ccccn2)C1)[C@H]1CCCc2cccnc21 [Example 40, (8S)—N-Methyl-N-[(1-{[(3S)-1-(2-pyridinylmethyl)-3-piperidinyl]methyl}-1H-benzimidazol-2-yl)methyl]-5,6,7,8-tetrahydro-8-quinolinamine]
100 to 500 | CN(Cc1nc2ccccc2n1CCc1cncn1C)C1CCCc2cccnc21 (centres unmarked) [Example 71, N-Methyl-N-({1-[2-(1-methyl-1H-imidazol-5-yl)ethyl]-1H-benzimidazol-2-yl}methyl)-5,6,7,8-tetrahydro-8-quinolinamine]
100 to 500 | CN(Cc1nc2ccccc2n1CC(=O)NCCN)C1CCCc2cccnc21 (centres unmarked) [Example 31, N-(2-Aminoethyl)-2-(2-{[methyl(5,6,7,8-tetrahydro-8-quinolinyl)amino]methyl}-1H-benzimidazol-1-yl)acetamide]
100 to 500 | CCCN/C(=N\C#N)N1CCC[C@H](Cn2c(CN(C)[C@H]3CCCc4cccnc43)nc3ccccc32)C1 [Example 90, (3R)—N-Cyano-3-{[2-({methyl[(8S)-5,6,7,8-tetrahydro-8-quinolinyl]amino}methyl)-1H-benzimidazol-1-yl]methyl}-N′-propyl-1-piperidinecarboximidamide]
500 to 10000 | CN(Cc1nc2ccccc2n1CC(=O)N1CCNCC1)C1CCCc2cccnc21 (centres unmarked) [Example 32, N-Methyl-N-({1-[2-oxo-2-(1-piperazinyl)ethyl]-1H-benzimidazol-2-yl}methyl)-5,6,7,8-tetrahydro-8-quinolinamine]
< 100 | CN(Cc1nc2ccccc2n1C[C@@H]1CCCNC1)[C@H]1CCCc2cccnc21 [Example 75e, (8S)—N-Methyl-N-({1-[(3R)-3-piperidinylmethyl]-1H-benzimidazol-2-yl}methyl)-5,6,7,8-tetrahydro-8-quinolinamine]
100 to 500 | CC(C)CN(Cc1nc2ccccc2n1C[C@H]1CCCN(C)C1)[C@H]1CCCc2cccnc21 [Example 94, (8S)—N-[(1-{[(3S)-1-Methyl-3-piperidinyl]methyl}-1H-benzimidazol-2-yl)methyl]-N-(2-methylpropyl)-5,6,7,8-tetrahydro-8-quinolinamine]
< 100 | CN(Cc1nc2ccccc2n1C[C@H]1CCCN(CCCO)C1)[C@H]1CCCc2cccnc21 [Example 47, 3-((3S)-3-{[2-({Methyl[(8S)-5,6,7,8-tetrahydro-8-quinolinyl]amino}methyl)-1H-benzimidazol-1-yl]methyl}1-piperidinyl)-1-propanol]
< 100 | CC(C)N(Cc1nc2ccccc2n1CCCN(C)C)C1CCCc2cccnc21 (centres unmarked) [Example 60, N-({1-[3-(Dimethylamino)propyl]-1H-benzimidazol-2-yl}methyl)-N-(1-methylethyl)-5,6,7,8-tetrahydro-8-quinolinamine]

From patent publication US20080096861A1, “Chemical Compounds” (SMITHKLINE BEECHAM CORPORATION, priority 2004, published 2008)
